According to paper PMC10574185, “Encapsulation and Biological Activity of Hesperetin Derivatives with HP-β-CD” (Molecules, 2023):
Converted amounts (≈) assume the structure as drawn. Like-named read-outs stand apart in the source and are kept apart here.

How the values were obtained:
[1] = Phase solubility studies with HP-β-CD; format: physicochemical; conditions: for solubility at 60 min: thermodynamic from solid
Experimental: The purpose of this part of the study was to determine the solubility of compounds of hesperetin and its Schiff bases (HHSB, HIN, and HTSC) in aqueous solution at different pHs and temperatures, and the effect of their inclusion in modified HP-β-CD on the aqueous solubility of these compounds at different pH values.
The effect of the presence of HP-β-CD at different temperatures (25, 37, and 60 °C) was determined by developing phase solubility diagrams.
In accordance with the methodology described in Section 3.4, excess amounts of each tested substance were added to aqueous solution with increasing concentration of HP-β-CD up to 16 mM, respectively, in 2 mL of 100 mM sodium acetate buffer (pH 3.6), 100 mM sodium phosphate buffer (pH 6.5) or 100 mM sodium borate buffer (pH 8.5).
Phase solubility studies were conducted according to [64] with some modifications. Excess amounts of each tested substance were added to aqueous solution with increasing concentration of HP-β-CD up to 16 mM, in 2 mL of 100 mM sodium acetate buffer (pH 3.6), 100 mM sodium phosphate buffer (pH 6.5), or 100 mM sodium borate buffer (pH 8.5), respectively. The samples were maintained in an ultrasonic bath at various temperatures (25, 37, and 60 °C) for 60 min to reach equilibrium. The aqueous solutions were then filtered through 0.45 µm acetate cellulose (CA) membrane filter and diluted. The tested compound concentration on each clear filtrate was spectrophotometrically determined by measuring at their wavelength maximum.
The complexation constant (Kc) between studied molecules and HP-β-CD was determined by using Equation (1):(1) Kc=slope/S0 (1−slope) where S0 means the water solubility of the studied substance, and “slope” means the slope of the phase solubility diagram.
Complexation efficiency was calculated from the slope of the phase solubility diagram using Equation (2):(2) CE=S0×Kc=slope/1−slope
The CE was also applied to evaluate the molar ratio in solution of tested systems using Equation (3):(3) Compound:HP−β−CD=1:(1+1/CE)

[2] = ABTS^•+ radical cation decolorization assay; conditions: concentration 0.1 mg/mL, mean ± SD
Experimental: To evaluate the antioxidant ability of the tested systems, antioxidant analysis was performed. Antioxidants can scavenge hydroxyl radicals in two ways: by reacting directly with hydroxyl radicals (DPPH^•, ABTS^•+) or indirectly inhibiting the formation of hydroxyl radicals by chelating metal ions involved in the production of hydroxyl radicals. The antioxidant activity of the systems studied was investigated by using DPPH^• scavenging, ABTS^•+ scavenging ability, and Fe^2+-chelating ability. In this study, the antioxidant activity of pure hesperetin and its Schiff bases (HHSB, HIN, and HTSC) and HP-β-CD complexes were compared, and the positive control was Trolox.
Antioxidant activity using ABTS^•+ cation radical scavenging was determined according to a modified method. ABTS solution (2.5 mM) was mixed with 1.0 mM potassium persulfate solution and left at room temperature in the dark for 12-24 h. After this time, the absorbance of the finished ABTS^•+ solution was corrected with ethanol to 0.70 ± 0.02 at 745 nm. A total of 100 µL of the sample was reacted for 5 min with 2 mL of ABTS^•+ solution (A745 nm = 0.70 ± 0.02). The absorbance value of the reaction mixture was measured at 745 nm. […] Scavenging activity (%) = [1 − (Asample − Ablank)/Acontrol] × 100%(4) where Acontrol is the absorbance value of the control (ABTS^•+ solution with water), Ablank is the absorbance value of samples mixed with anhydrous ethanol, and Asample is the absorbance value of the added test sample to ABTS^•+ solution at 745 nm, respectively.

[3] = tested on: Staphylococcus aureus ATCC 25923; assay: Minimal inhibition concentration (dilution + diffusion-well); format: cell-based; conditions: ATCC25923, 37 °C, 18 h
Experimental: The MIC was performed for compounds and strains sensitive to their action in the antagonistic test. Minimum inhibitory concentration was determined by combining the dilution method with the diffusion-well method. Test compounds at a concentration of 500 μM were prepared in 5% (w/w) DMSO. Surface layer of microorganisms, against which antagonistic activity was noted, were prepared in the same way as for the antagonistic test. Then, two-fold sequential dilutions of the test compounds in the range of 500 µM to 62.5 µM were prepared. Wells with a diameter of 8 mm cut in the Mueller–Hinton Agar (Merck, Darmstadt, Germany) with the test strain were added with 50 µL of the prepared dilutions, which corresponded to the following concentrations of the tested compounds: […], 1.25 mM, 0.625 mM, and […]. Petri dishes prepared in this way were incubated at 37 °C for 18 h. After a given time, the MIC value was read. The MIC concentration expressed in µM was the first concentration of the tested compounds at which growth inhibition of the test strain was observed.

[4] = aqueous buffer, 25 °C, pH 3.6 sodium acetate buffer, without cyclodextrin, read-out: solubility without HP-β-CD (value in brackets) (converted)
[5] = aqueous buffer, 25 °C, pH 6.5 sodium phosphate buffer, without cyclodextrin, read-out: solubility without HP-β-CD (value in brackets) (converted)
[6] = aqueous buffer, 25 °C, pH 8.5 sodium borate buffer, without cyclodextrin, read-out: solubility without HP-β-CD (value in brackets) (converted)
[7] = aqueous buffer, 37 °C, pH 3.6 sodium acetate buffer, without cyclodextrin, read-out: solubility without HP-β-CD (value in brackets) (converted)
[8] = aqueous buffer, 37 °C, pH 6.5 sodium phosphate buffer, without cyclodextrin, read-out: solubility without HP-β-CD (value in brackets) (converted)
[9] = aqueous buffer, 37 °C, pH 8.5 sodium borate buffer, without cyclodextrin, read-out: solubility without HP-β-CD (value in brackets) (converted)
[10] = aqueous buffer, 60 °C, pH 3.6 sodium acetate buffer, without cyclodextrin, read-out: solubility without HP-β-CD (value in brackets) (converted)
[11] = aqueous buffer, 60 °C, pH 6.5 sodium phosphate buffer, without cyclodextrin, read-out: solubility without HP-β-CD (value in brackets) (converted)
[12] = aqueous buffer, 60 °C, pH 8.5 sodium borate buffer, without cyclodextrin, read-out: solubility without HP-β-CD (value in brackets) (converted)
[13] = 25 °C, pH 3.6 sodium acetate buffer, with HP-β-CD, read-out: S0 (solubility with HP-β-CD)
[14] = 25 °C, pH 6.5 sodium phosphate buffer, with HP-β-CD, read-out: S0 (solubility with HP-β-CD)
[15] = 25 °C, pH 8.5 sodium borate buffer, with HP-β-CD, read-out: S0 (solubility with HP-β-CD)
[16] = 37 °C, pH 3.6 sodium acetate buffer, with HP-β-CD, read-out: S0 (solubility with HP-β-CD)
[17] = 37 °C, pH 6.5 sodium phosphate buffer, with HP-β-CD, read-out: S0 (solubility with HP-β-CD)
[18] = 37 °C, pH 8.5 sodium borate buffer, with HP-β-CD, read-out: S0 (solubility with HP-β-CD)
[19] = 60 °C, pH 3.6 sodium acetate buffer, with HP-β-CD, read-out: S0 (solubility with HP-β-CD)
[20] = 60 °C, pH 6.5 sodium phosphate buffer, with HP-β-CD, read-out: S0 (solubility with HP-β-CD)
[21] = 60 °C, pH 8.5 sodium borate buffer, with HP-β-CD, read-out: S0 (solubility with HP-β-CD)

Row | SMILES | CE complexation efficiency ([1]; 25 °C, pH 3.6, with HP-β-CD) | Kc complexation constant ([1]; 25 °C, pH 3.6, with HP-β-CD) | CE complexation efficiency ([1]; 25 °C, pH 6.5, with HP-β-CD) | Kc complexation constant ([1]; 25 °C, pH 6.5, with HP-β-CD) | CE complexation efficiency ([1]; 25 °C, pH 8.5, with HP-β-CD) | Kc complexation constant ([1]; 25 °C, pH 8.5, with HP-β-CD) | CE complexation efficiency ([1]; 37 °C, pH 3.6, with HP-β-CD) | Kc complexation constant ([1]; 37 °C, pH 3.6, with HP-β-CD) | CE complexation efficiency ([1]; 37 °C, pH 6.5, with HP-β-CD) | Kc complexation constant ([1]; 37 °C, pH 6.5, with HP-β-CD) | CE complexation efficiency ([1]; 37 °C, pH 8.5, with HP-β-CD) | Kc complexation constant ([1]; 37 °C, pH 8.5, with HP-β-CD) | CE complexation efficiency ([1]; 60 °C, pH 3.6, with HP-β-CD) | Kc complexation constant ([1]; 60 °C, pH 3.6, with HP-β-CD) | CE complexation efficiency ([1]; 60 °C, pH 6.5, with HP-β-CD) | Kc complexation constant ([1]; 60 °C, pH 6.5, with HP-β-CD) | CE complexation efficiency ([1]; 60 °C, pH 8.5, with HP-β-CD) | Kc complexation constant ([1]; 60 °C, pH 8.5, with HP-β-CD) | solubility at 60 min [1, 4] | solubility at 60 min [1, 5] | other results
1 | COc1ccc(C2CC(=NNC(N)=S)c3c(O)cc(O)cc3O2)cc1O (stereo not shown) [HTSC, N-[2,3-dihydro-5,7-dihydroxy-2-(3-hydroxy-4-methoxyphenyl)chromen-4-ylidene]thiosemicarbazide] | 0.07% | 13 ± 2.9 M⁻¹ | 0.07% | 11 ± 1.6 M⁻¹ | 0.1% | 12.5 ± 0.3 M⁻¹ | 0.1% | 16 ± 1.7 M⁻¹ | 0.1% | 16 ± 1.7 M⁻¹ | 0.3% | 18 ± 4.2 M⁻¹ | 0.5% | 28 ± 0.3 M⁻¹ | 0.04% | 2.2 ± 0.6 M⁻¹ | 0.1% | 3.2 ± 0.6 M⁻¹ | 17 µM (≈ 6.38 µg/mL) | 11 µM (≈ 4.13 µg/mL) | increase of solubility with HP-β-CD ([1]; 25 °C, pH 6.5, HP-β-CD at 16 mM): five-fold; increase of solubility with HP-β-CD ([1]; 60 °C, pH 3.6): five-fold; solubility at 60 min [1, 6]: 20 µM (≈ 7.51 µg/mL); solubility at 60 min [1, 7]: 28 µM (≈ 10.5 µg/mL); solubility at 60 min [1, 8]: 27 µM (≈ 10.1 µg/mL); solubility at 60 min [1, 9]: 220 µM (≈ 82.6 µg/mL); solubility at 60 min [1, 10]: 37 µM (≈ 13.9 µg/mL); solubility at 60 min [1, 11]: 160 µM (≈ 60.1 µg/mL); solubility at 60 min [1, 12]: 250 µM (≈ 93.9 µg/mL); solubility at 60 min [1, 13]: 54 ± 30 µM (≈ 20.3 µg/mL); solubility at 60 min [1, 14]: 61 ± 20 µM (≈ 22.9 µg/mL); solubility at 60 min [1, 15]: 70 ± 30 µM (≈ 26.3 µg/mL); solubility at 60 min [1, 16]: 76 ± 35 µM (≈ 28.5 µg/mL); solubility at 60 min [1, 17]: 68 ± 33 µM (≈ 25.5 µg/mL); solubility at 60 min [1, 18]: 160 ± 54 µM (≈ 60.1 µg/mL); solubility at 60 min [1, 19]: 170 ± 65 µM (≈ 63.8 µg/mL); solubility at 60 min [1, 20]: 180 ± 60 µM (≈ 67.6 µg/mL); solubility at 60 min [1, 21]: 270 ± 89 µM (≈ 101 µg/mL); ABTS^•+ antioxidant activity [2]: 86.61 ± 4.6%; MIC [3]: 1.25 µM
2 | COc1ccc(C2C/C(=N\NC(=O)c3ccccc3)c3c(O)cc(O)cc3O2)cc1O (racemic) [HHSB] | 1.4% | 341 ± 79 M⁻¹ | 0.7% | 150 ± 21 M⁻¹ | 0.7% | 150 ± 19 M⁻¹ | 1.1% | 226 ± 92 M⁻¹ | 2.5% | 618 ± 36 M⁻¹ | 0.15% | 100 ± 34 M⁻¹ | 0.9% | 250 ± 20 M⁻¹ | 1.8% | 155 ± 4 M⁻¹ | 7% | 728 ± 82 M⁻¹ | 18 µM (≈ 7.57 µg/mL) | 25 µM (≈ 10.5 µg/mL) | increase of solubility with HP-β-CD ([1]; 60 °C, pH 8.5): five-fold; solubility at 60 min [1, 6]: 25 µM (≈ 10.5 µg/mL); solubility at 60 min [1, 7]: 20 µM (≈ 8.41 µg/mL); solubility at 60 min [1, 8]: 5 µM (≈ 2.1 µg/mL); solubility at 60 min [1, 9]: 5 µM (≈ 2.1 µg/mL); solubility at 60 min [1, 10]: 12 µM (≈ 5.05 µg/mL); solubility at 60 min [1, 11]: 27 µM (≈ 11.4 µg/mL); solubility at 60 min [1, 12]: 18 µM (≈ 7.57 µg/mL); solubility at 60 min [1, 13]: 41 ± 21 µM (≈ 17.2 µg/mL); solubility at 60 min [1, 14]: 45 ± 5 µM (≈ 18.9 µg/mL); solubility at 60 min [1, 15]: 45 ± 5 µM (≈ 18.9 µg/mL); solubility at 60 min [1, 16]: 50 ± 10 µM (≈ 21 µg/mL); solubility at 60 min [1, 17]: 41 ± 23 µM (≈ 17.2 µg/mL); solubility at 60 min [1, 18]: 15 ± 6.1 µM (≈ 6.31 µg/mL); solubility at 60 min [1, 19]: 36 ± 14 µM (≈ 15.1 µg/mL); solubility at 60 min [1, 20]: 115 ± 53 µM (≈ 48.3 µg/mL); solubility at 60 min [1, 21]: 96 ± 42 µM (≈ 40.4 µg/mL); ABTS^•+ antioxidant activity [2]: 98.11 ± 5.0%; MIC [3]: 2.5 µM
